The text below walks through data of PubChem BioAssay AID270 (DTP/NCI, 2004).

Molecules are shown by their SMILES. Where “and” joins values, the source holds several entries; their conditions need not be identical. Identical values can stand only once. Inconclusive results are not listed.

The subject of the assay is BDF1 mice, s.c. Lewis lung carcinoma, T/C %. The experiment in a line: NCI In Vivo Anticancer Drug Screen. Data for tumor model Lewis Lung Carcinoma (subcutaneous) in B6D2F1 (BDF1) mice. Summed up:
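The value reflects a ratio in which the treated cohort's survival time or tumour size is compared against mice receiving only vehicle.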

Where [1] appears, read: endpoint: mean tumor weight, dose: 6.0 mg/kg/injection, schedule: Q01DX011 (ip), vehicle: saline, higher = larger tumour.

For `C1CN1c1nc(N2CC2)nc(N2CC2)n1`, the T/C is, setting by setting: (endpoint: mean tumor weight, dose: 0.25 mg/kg/injection, schedule: Q01DX011 (ip), vehicle: saline, higher = larger tumour) 72 % of control and 80 % of control; (endpoint: mean tumor weight, dose: 0.5 mg/kg/injection, schedule: Q01DX011 (ip), vehicle: saline, higher = larger tumour) 44 % of control and 46 % of control; (endpoint: median survival time, dose: 0.05 mg/kg/injection, schedule: Q01DX009 (ip), vehicle: saline, higher = longer survival) 96 % of control and 113 % of control; (endpoint: median survival time, dose: 0.1 mg/kg/injection, schedule: Q01DX009 (ip), vehicle: saline, higher = longer survival) 92 % of control and 106 % of control; (endpoint: median survival time, dose: 0.12 mg/kg/injection, schedule: Q01DX009 (ip), vehicle: saline, higher = longer survival) 118 % of control; (endpoint: median survival time, dose: 0.13 mg/kg/injection, schedule: Q01DX009 (ip), vehicle: saline, higher = longer survival) 90 % of control. In addition, the T/C reads like this: (endpoint: median survival time, dose: 0.2 mg/kg/injection, schedule: Q01DX009 (ip), vehicle: saline, higher = longer survival) 100 % of control; (endpoint: median survival time, dose: 0.4 mg/kg/injection, schedule: Q01DX009 (ip), vehicle: saline, higher = longer survival) 89 % of control and 104 % of control; (endpoint: median survival time, dose: 0.5 mg/kg/injection, schedule: Q01DX009 (ip), vehicle: saline with Tween-80, higher = longer survival) 123 % of control; (endpoint: median survival time, dose: 0.5 mg/kg/injection, schedule: Q08DX002 (ip), vehicle: saline with Tween-80, higher = longer survival) 102 % of control; (endpoint: median survival time, dose: 0.5 mg/kg/injection, schedule: Q08DX002 (ip), vehicle: saline, higher = longer survival) 92 % of control and 111 % of control and 123 % of control; (endpoint: median survival time, dose: 1.0 mg/kg/injection, schedule: Q08DX002 (ip), vehicle: saline with Tween-80, higher = longer survival) 119 % of control. Moreover, the T/C was 115 % of control (endpoint: median survival time, dose: 2.0 mg/kg/injection, schedule: Q08DX002 (ip), vehicle: saline with Tween-80, higher = longer survival); 155 % of control (endpoint: median survival time, dose: 2.0 mg/kg/injection, schedule: Q08DX002 (ip), vehicle: saline, higher = longer survival); 93 % of control (endpoint: median survival time, dose: 4.0 mg/kg/injection, schedule: Q08DX002 (ip), vehicle: saline, higher = longer survival); 172 % of control (endpoint: median survival time, dose: 250.0 micrograms/kg/injection, schedule: Q01DX009 (ip), vehicle: saline, higher = longer survival); 110 % of control (endpoint: median survival time, dose: 500.0 micrograms/kg/injection, schedule: Q01DX009 (ip), vehicle: saline, higher = longer survival); 95 % of control (endpoint: median tumor weight (est.), dose: 0.12 mg/kg/injection, schedule: Q01DX009 (ip), vehicle: saline with Tween-80, higher = larger tumour). Further, the T/C was 81 % of control (endpoint: median tumor weight (est.), dose: 0.25 mg/kg/injection, schedule: Q01DX009 (ip), vehicle: saline with Tween-80, higher = larger tumour); 58 % of control (endpoint: median tumor weight (est.), dose: 0.5 mg/kg/injection, schedule: Q01DX009 (ip), vehicle: saline with Tween-80, higher = larger tumour); 97 % of control (endpoint: median tumor weight (est.), dose: 0.5 mg/kg/injection, schedule: Q08DX002 (ip), vehicle: saline with Tween-80, higher = larger tumour); 86 % of control (endpoint: median tumor weight (est.), dose: 1.0 mg/kg/injection, schedule: Q08DX002 (ip), vehicle: saline with Tween-80, higher = larger tumour); 49 % of control (endpoint: median tumor weight (est.), dose: 2.0 mg/kg/injection, schedule: Q08DX002 (ip), vehicle: saline with Tween-80, higher = larger tumour).
As for `CC1CN1c1nc(N2CC2C)nc(N2CC2C)n1` (stereo not drawn), the T/C runs as follows: (endpoint: median survival time, dose: 1.0 mg/kg/injection, schedule: Q01DX009 (ip), vehicle: saline, higher = longer survival) 106 % of control; (endpoint: median survival time, dose: 2.0 mg/kg/injection, schedule: Q01DX009 (ip), vehicle: saline, higher = longer survival) 86 % of control; (endpoint: median survival time, dose: 4.0 mg/kg/injection, schedule: Q01DX009 (ip), vehicle: saline, higher = longer survival) 105 % of control; (endpoint: median survival time, dose: 8.0 mg/kg/injection, schedule: Q01DX009 (ip), vehicle: saline, higher = longer survival) 105 % of control.
In the case of `Nc1ncnc2c1ncn2C1OC(CO)C(O)C1O` (stereo not drawn), the T/C by setting is: (endpoint: mean tumor weight, dose: 50.0 mg/kg/injection, schedule: Q01DX011 (ip), vehicle: saline, higher = larger tumour) 108 % of control; (endpoint: mean tumor weight, dose: 100.0 mg/kg/injection, schedule: Q01DX011 (ip), vehicle: saline, higher = larger tumour) 103 % of control; (endpoint: mean tumor weight, dose: 200.0 mg/kg/injection, schedule: Q01DX011 (ip), vehicle: saline, higher = larger tumour) 102 % of control; (endpoint: mean tumor weight, dose: 400.0 mg/kg/injection, schedule: Q01DX011 (ip), vehicle: saline, higher = larger tumour) 93 % of control; (endpoint: median survival time, dose: 70.0 mg/kg/injection, schedule: Q03HX024 (ip), vehicle: saline with Tween-80, higher = longer survival) 94 % of control; (endpoint: median survival time, dose: 80.0 mg/kg/injection, schedule: Q03HX024 (ip), vehicle: saline with Tween-80, higher = longer survival) 98 % of control. Further, the T/C runs as follows: (endpoint: median survival time, dose: 160.0 mg/kg/injection, schedule: Q03HX024 (ip), vehicle: saline with Tween-80, higher = longer survival) 104 % of control; (endpoint: median survival time, dose: 240.0 mg/kg/injection, schedule: Q03HX024 (ip), vehicle: saline with Tween-80, higher = longer survival) 86 % of control.
As to `CN(C)c1ccc(/C=C\c2ccnc3ccccc23)cc1`, the T/C is, setting by setting: (endpoint: mean tumor weight, dose: 1.25 mg/kg/injection, schedule: Q01DX011 (ip), vehicle: other, higher = larger tumour) 103 % of control; (endpoint: mean tumor weight, dose: 2.5 mg/kg/injection, schedule: Q01DX011 (ip), vehicle: other, higher = larger tumour) 84 % of control; (endpoint: mean tumor weight, dose: 5.0 mg/kg/injection, schedule: Q01DX011 (ip), vehicle: other, higher = larger tumour) 75 % of control; (endpoint: mean tumor weight, dose: 10.0 mg/kg/injection, schedule: Q01DX011 (ip), vehicle: other, higher = larger tumour) 71 % of control and 83 % of control; (endpoint: mean tumor weight, dose: 20.0 mg/kg/injection, schedule: Q01DX011 (ip), vehicle: other, higher = larger tumour) 54 % of control and 68 % of control.
Take `COC(=O)[C@@]12OC[C@]34[C@H]([C@@H](O)[C@@H]1O)[C@@]1(C)CC(=O)C(O)=C(C)[C@@H]1C[C@H]3OC(=O)[C@H](OC(=O)/C=C(\C)C(C)C)[C@@H]24`: the T/C runs as follows: (endpoint: median survival time, dose: 0.12 mg/kg/injection, schedule: Q01DX009 (ip), vehicle: other, higher = longer survival) 99 % of control; (endpoint: median survival time, dose: 0.25 mg/kg/injection, schedule: Q01DX009 (ip), vehicle: other, higher = longer survival) 91 % of control; (endpoint: median survival time, dose: 0.5 mg/kg/injection, schedule: Q01DX009 (ip), vehicle: other, higher = longer survival) 92 % of control; (endpoint: median survival time, dose: 1.0 mg/kg/injection, schedule: Q01DX009 (ip), vehicle: other, higher = longer survival) 91 % of control; (endpoint: median survival time, dose: 2.0 mg/kg/injection, schedule: Q01DX009 (ip), vehicle: other, higher = longer survival) 87 % of control.
Turning to `CC(=O)OC1C=CC(=O)OC1C1OC1C` (stereo not drawn), the T/C is 105 % of control (endpoint: mean tumor weight, dose: 4.0 mg/kg/injection, schedule: Q01DX011 (ip), vehicle: saline, higher = larger tumour); 81 % of control under setting [1]; 91 % of control (endpoint: mean tumor weight, dose: 9.0 mg/kg/injection, schedule: Q01DX011 (ip), vehicle: saline, higher = larger tumour); 62 % of control (endpoint: mean tumor weight, dose: 19.0 mg/kg/injection, schedule: Q01DX011 (ip), vehicle: saline, higher = larger tumour).
With `O=NN(CCCl)C(=O)N[C@H]1CCCC[C@H]1Cl`, the T/C by setting is: (endpoint: median survival time, dose: 22.5 mg/kg/injection, schedule: Q01DX001 (ip), vehicle: Klucel (hydroxypropylcellulose) (HPC), higher = longer survival) 106 % of control; (endpoint: median survival time, dose: 360.0 mg/kg/injection, schedule: Q01DX001 (ip), vehicle: Klucel (hydroxypropylcellulose) (HPC), higher = longer survival) 102 % of control; (endpoint: median tumor weight (est.), dose: 45.0 mg/kg/injection, schedule: Q01DX001 (ip), vehicle: carboxymethylcellulose (CMC), higher = larger tumour) 89 % of control; (endpoint: median tumor weight (est.), dose: 90.0 mg/kg/injection, schedule: Q01DX001 (ip), vehicle: carboxymethylcellulose (CMC), higher = larger tumour) 6 % of control; (endpoint: median tumor weight (est.), dose: 130.0 mg/kg/injection, schedule: Q01DX001 (ip), vehicle: carboxymethylcellulose (CMC), higher = larger tumour) 8 % of control.
Regarding `CC(=O)OC1CCC(NC(=O)N(CCF)N=O)CC1` (stereo not drawn), the T/C was 100 % of control (endpoint: median survival time, dose: 24.0 mg/kg/injection, schedule: Q01DX001 (ip), vehicle: saline with Tween-80, higher = longer survival) and 102 % of control (endpoint: median survival time, dose: 36.0 mg/kg/injection, schedule: Q01DX001 (ip), vehicle: saline with Tween-80, higher = longer survival).
Turning to `CN(C)CC(Cl)CCl` (stereo not drawn), the T/C is 117 % of control (endpoint: median survival time, dose: 50.0 mg/kg/injection, schedule: Q01DX009 (ip), vehicle: saline, higher = longer survival); 122 % of control (endpoint: median survival time, dose: 100.0 mg/kg/injection, schedule: Q01DX009 (ip), vehicle: saline, higher = longer survival); 105 % of control (endpoint: median survival time, dose: 200.0 mg/kg/injection, schedule: Q01DX009 (ip), vehicle: saline, higher = longer survival).
In the case of `CN(C)c1ccc(C(N)=O)cn1`, the T/C by setting is: (endpoint: mean tumor weight, dose: 1.5 mg/kg/injection, schedule: Q01DX011 (ip), vehicle: saline, higher = larger tumour) 100 % of control; (endpoint: mean tumor weight, dose: 3.0 mg/kg/injection, schedule: Q01DX011 (ip), vehicle: saline, higher = larger tumour) 63 % of control; under setting [1], 36 % of control.
For `COc1ccc([C@@H]2c3cc4c(cc3C[C@H]3COC(=O)[C@@H]32)OCO4)cc1OC`, the T/C is 98 % of control (endpoint: median survival time, dose: 11.0 mg/kg/injection, schedule: Q01DX009 (ip), vehicle: saline with Tween-80, higher = longer survival); 100 % of control (endpoint: median survival time, dose: 22.0 mg/kg/injection, schedule: Q01DX009 (ip), vehicle: saline with Tween-80, higher = longer survival); 97 % of control (endpoint: median survival time, dose: 33.0 mg/kg/injection, schedule: Q01DX009 (ip), vehicle: saline with Tween-80, higher = longer survival).
For `O=S1(=O)CCCO1`, the T/C is 109 % of control (endpoint: mean tumor weight, dose: 10.0 mg/kg/injection, schedule: Q01DX011 (ip), vehicle: saline, higher = larger tumour); 102 % of control (endpoint: mean tumor weight, dose: 20.0 mg/kg/injection, schedule: Q01DX011 (ip), vehicle: saline, higher = larger tumour); 78 % of control (endpoint: mean tumor weight, dose: 40.0 mg/kg/injection, schedule: Q01DX011 (ip), vehicle: saline, higher = larger tumour).
